Data from patent US20200239530A1, “COMPOUNDS AND METHODS OF MODULATING PROTEIN DEGRADATION” (Vividion Therapeutics, Inc., priority 2017, published 2020).
Where two headings read alike, the source gives them in different places.

Assays:
Experiment in all cases: Cysteine liganding, probe competition
Assay type in all cases: binding
UniProt Q8IWR1 = target: T1, UniProt Q8IWR1 (Homo sapiens, UniProt Q8IWR1)
T1 construct: 200 μL of lysate containing 5 mg/ml proteome was treated with 2 μL of 100× compound stock; endogenous in cells
T1 sequence (Q8IWR1 1-403): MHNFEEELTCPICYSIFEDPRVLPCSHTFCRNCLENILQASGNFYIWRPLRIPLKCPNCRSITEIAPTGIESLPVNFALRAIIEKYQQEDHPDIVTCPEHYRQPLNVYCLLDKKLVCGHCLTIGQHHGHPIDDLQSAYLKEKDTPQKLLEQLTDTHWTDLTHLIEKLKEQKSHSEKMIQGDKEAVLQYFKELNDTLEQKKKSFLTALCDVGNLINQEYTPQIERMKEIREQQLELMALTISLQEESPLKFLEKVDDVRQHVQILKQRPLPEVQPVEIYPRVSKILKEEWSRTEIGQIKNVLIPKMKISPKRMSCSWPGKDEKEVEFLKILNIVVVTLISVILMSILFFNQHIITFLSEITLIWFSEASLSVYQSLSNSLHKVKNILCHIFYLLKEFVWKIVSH
From the text: (§1) The following 96-well sample prep protocol was used for sample preparation.

UniProt Q495X7 = target: T2, UniProt Q495X7 (Homo sapiens, UniProt Q495X7)
T2 construct: 200 μL of lysate containing 5 mg/ml proteome was treated with 2 μL of 100× compound stock; endogenous in cells
T2 sequence (Q495X7 1-471): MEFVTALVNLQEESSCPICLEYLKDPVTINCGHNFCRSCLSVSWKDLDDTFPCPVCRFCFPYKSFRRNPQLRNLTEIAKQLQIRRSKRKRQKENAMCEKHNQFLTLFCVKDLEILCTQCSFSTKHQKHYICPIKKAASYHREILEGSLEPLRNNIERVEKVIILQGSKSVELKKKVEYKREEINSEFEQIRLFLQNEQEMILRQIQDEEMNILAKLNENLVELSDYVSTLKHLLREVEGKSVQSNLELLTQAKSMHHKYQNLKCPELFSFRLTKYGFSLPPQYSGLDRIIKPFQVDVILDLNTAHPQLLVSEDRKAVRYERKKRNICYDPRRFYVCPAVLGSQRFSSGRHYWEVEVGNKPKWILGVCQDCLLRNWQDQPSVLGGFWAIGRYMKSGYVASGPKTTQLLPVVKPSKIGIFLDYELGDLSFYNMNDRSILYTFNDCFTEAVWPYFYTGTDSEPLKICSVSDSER
From the text: as §1

UniProt Q9H0F6 = target: T3, UniProt Q9H0F6 (Homo sapiens, UniProt Q9H0F6); conditions: read-out: percent_inhibition
T3 construct: 200 μL of lysate containing 5 mg/ml proteome was treated with 2 μL of 100× compound stock; endogenous in cells
From the text: as §1

UniProt Q96DX4 = target: T4, UniProt Q96DX4 (Homo sapiens, UniProt Q96DX4); conditions: read-out: percent_inhibition
T4 construct: 200 μL of lysate containing 5 mg/ml proteome was treated with 2 μL of 100× compound stock; endogenous in cells
From the text: as §1

UniProt Q8TEL6 = target: T5, UniProt Q8TEL6 (Homo sapiens, UniProt Q8TEL6)
T5 construct: 200 μL of lysate containing 5 mg/ml proteome was treated with 2 μL of 100× compound stock; endogenous in cells
T5 sequence (Q8TEL6 1-797): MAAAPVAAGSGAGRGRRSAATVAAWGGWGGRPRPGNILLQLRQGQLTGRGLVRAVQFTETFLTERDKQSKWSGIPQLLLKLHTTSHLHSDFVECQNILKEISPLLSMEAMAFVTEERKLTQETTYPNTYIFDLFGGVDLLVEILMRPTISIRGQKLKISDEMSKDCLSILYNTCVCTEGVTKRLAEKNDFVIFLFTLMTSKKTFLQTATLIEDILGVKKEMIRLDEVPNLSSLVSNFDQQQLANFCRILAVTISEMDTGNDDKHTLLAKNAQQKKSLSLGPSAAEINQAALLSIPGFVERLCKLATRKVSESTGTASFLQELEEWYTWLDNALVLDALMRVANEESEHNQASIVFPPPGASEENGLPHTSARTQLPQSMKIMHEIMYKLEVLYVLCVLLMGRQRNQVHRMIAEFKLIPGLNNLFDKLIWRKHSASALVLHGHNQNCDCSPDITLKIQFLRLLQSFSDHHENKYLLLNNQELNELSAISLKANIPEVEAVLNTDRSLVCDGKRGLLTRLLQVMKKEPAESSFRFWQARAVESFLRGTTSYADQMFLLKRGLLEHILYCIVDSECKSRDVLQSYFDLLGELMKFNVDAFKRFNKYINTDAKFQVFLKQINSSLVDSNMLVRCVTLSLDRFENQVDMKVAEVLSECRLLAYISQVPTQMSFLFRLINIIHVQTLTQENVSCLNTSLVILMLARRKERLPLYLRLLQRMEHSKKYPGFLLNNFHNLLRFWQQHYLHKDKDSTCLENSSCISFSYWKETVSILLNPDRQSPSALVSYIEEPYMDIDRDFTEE
From the text: as §1

UniProt Q9NPC7 = target: T6, UniProt Q9NPC7 (Homo sapiens, UniProt Q9NPC7)
T6 construct: Cells were resuspended in cold PBS on ice and sonicated with a probe sonicator to achieve lysis; endogenous in cells
T6 sequence (Q9NPC7 1-610): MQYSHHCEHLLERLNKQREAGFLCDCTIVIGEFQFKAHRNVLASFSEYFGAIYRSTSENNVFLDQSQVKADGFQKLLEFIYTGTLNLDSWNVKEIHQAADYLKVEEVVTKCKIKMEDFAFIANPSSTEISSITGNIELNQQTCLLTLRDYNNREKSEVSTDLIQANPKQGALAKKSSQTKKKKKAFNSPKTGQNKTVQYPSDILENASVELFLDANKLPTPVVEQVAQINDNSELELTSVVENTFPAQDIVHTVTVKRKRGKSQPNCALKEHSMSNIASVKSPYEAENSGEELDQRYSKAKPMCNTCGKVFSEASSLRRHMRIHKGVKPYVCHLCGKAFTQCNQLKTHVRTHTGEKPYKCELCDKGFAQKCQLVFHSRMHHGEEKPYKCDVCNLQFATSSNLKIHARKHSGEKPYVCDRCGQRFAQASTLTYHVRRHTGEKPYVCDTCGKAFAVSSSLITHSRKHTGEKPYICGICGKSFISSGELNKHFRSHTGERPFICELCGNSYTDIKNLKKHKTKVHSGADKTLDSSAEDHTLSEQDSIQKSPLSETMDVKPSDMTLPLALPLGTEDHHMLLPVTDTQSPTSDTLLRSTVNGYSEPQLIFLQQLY
From the text: as §1

UniProt Q86SE9 = target: T7, UniProt Q86SE9 (Homo sapiens, UniProt Q86SE9)
T7 construct: 200 μL of lysate containing 5 mg/ml proteome was treated with 2 μL of 100× compound stock; endogenous in cells
From the text: as §1

[1] = 500 uM, read-out: KB02_500 uM_percent_inhibition
[2] = 100 uM, read-out: KB02_100 uM_percent_inhibition
[3] = 500 uM, read-out: KB05_500 uM_percent_inhibition

T7 sequence (Q86SE9 whole entry, change not shown): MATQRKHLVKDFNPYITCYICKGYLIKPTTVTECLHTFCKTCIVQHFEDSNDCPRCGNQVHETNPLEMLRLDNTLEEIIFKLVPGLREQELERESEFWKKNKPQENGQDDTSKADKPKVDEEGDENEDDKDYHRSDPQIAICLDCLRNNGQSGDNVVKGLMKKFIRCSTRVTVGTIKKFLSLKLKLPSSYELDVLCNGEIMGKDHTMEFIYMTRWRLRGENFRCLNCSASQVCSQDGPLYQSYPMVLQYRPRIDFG
T3 sequence (Q9H0F6 whole entry, change not shown): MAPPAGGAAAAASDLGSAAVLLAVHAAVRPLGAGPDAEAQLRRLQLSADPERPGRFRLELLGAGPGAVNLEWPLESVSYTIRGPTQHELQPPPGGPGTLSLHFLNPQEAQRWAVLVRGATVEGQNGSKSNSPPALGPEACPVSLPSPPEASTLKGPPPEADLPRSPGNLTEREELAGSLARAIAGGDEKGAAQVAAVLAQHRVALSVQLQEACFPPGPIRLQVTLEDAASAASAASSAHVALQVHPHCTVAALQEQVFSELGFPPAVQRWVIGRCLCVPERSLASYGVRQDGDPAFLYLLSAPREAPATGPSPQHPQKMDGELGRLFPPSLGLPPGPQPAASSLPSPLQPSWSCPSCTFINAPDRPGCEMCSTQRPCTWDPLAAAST
T4 sequence (Q96DX4 17-576, change not shown): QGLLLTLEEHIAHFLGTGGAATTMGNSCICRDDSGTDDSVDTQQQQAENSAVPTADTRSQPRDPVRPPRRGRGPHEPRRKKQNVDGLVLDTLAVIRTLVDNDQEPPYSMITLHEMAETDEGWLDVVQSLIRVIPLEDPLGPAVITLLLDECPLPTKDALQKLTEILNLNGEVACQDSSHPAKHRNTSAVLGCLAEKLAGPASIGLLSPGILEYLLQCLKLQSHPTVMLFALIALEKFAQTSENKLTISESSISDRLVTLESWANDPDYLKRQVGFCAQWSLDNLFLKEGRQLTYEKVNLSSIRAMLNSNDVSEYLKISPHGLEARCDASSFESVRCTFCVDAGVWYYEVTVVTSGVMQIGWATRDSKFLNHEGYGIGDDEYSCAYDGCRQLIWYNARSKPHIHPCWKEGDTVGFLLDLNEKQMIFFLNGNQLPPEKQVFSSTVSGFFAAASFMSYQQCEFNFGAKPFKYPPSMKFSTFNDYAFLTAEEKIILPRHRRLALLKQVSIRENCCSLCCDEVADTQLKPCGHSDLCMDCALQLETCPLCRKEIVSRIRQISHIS

inhibition at 100 µM (UniProt Q9NPC7; 100 uM, read-out: percent inhibition) | inhibition at 500 µM (UniProt Q9NPC7; 500 uM, read-out: percent inhibition) | inhibition at 100 µM (UniProt Q8IWR1; read-out: KB05_100 uM_percent_inhibition) | KB05_500 uM_percent_inhibition (UniProt Q8TEL6; 500 uM) | inhibition at 500 µM (UniProt Q8TEL6; [3]) | inhibition at 100 µM (UniProt Q86SE9; 100 uM, read-out: KB05_100 uM_percent_inhibition) | KB05_500 uM_percent_inhibition (UniProt Q86SE9; 500 uM) | inhibition at 500 µM (UniProt Q86SE9; [3]) | SMILES | inhibition at 100 µM (UniProt Q8IWR1; read-out: KB02_100 uM_percent_inhibition) | KB02_500 uM_percent_inhibition (UniProt Q8IWR1; 500 uM) | inhibition at 500 µM (UniProt Q8IWR1; [1]) | inhibition at 100 µM (UniProt Q495X7; [2]) | inhibition at 500 µM (UniProt Q495X7; [1]) | inhibition at 100 µM (UniProt Q9H0F6) | inhibition at 500 µM (UniProt Q96DX4) | inhibition at 100 µM (UniProt Q8TEL6; [2]) | percent inhibition (UniProt Q9NPC7; 100 uM) | KB03_100 uM_percent_inhibition (UniProt Q495X7; 100 uM) | KB03_500 uM_percent_inhibition (UniProt Q495X7; 500 uM) | KB03_100 uM_percent_inhibition (UniProt Q86SE9; 100 uM)
– | – | – | – | – | – | – | – | COc1ccc2c(c1)CCCN2C(=O)CCl [KB02] | 46% | 66% | 58% | 15% | 44% | 3% | 17% | 1% | – | – | – | –
1% | 58% | 38% | 61% | 77% | 9% | 58% | 53% | C=CC(=O)N(c1ccccc1)c1ccc(Br)cc1 [KB05] | – | – | – | – | – | 25% | 24% | – | – | – | – | –
– | – | – | – | – | – | – | – | O=C(CCl)Nc1cc(C(F)(F)F)cc(C(F)(F)F)c1 [KBO3] | – | – | – | – | – | – | – | – | 30% | 27% | 43% | 25%
